Results reported in patent US6818391B2, “Glutamate transporters” (The Regents of the University of California, priority 2000, dated 2004).
Entries after “also recorded” stand apart in the source; their conditions may differ. Each block holds one compound with its values, some of them ahead of it.

Columns and labels:
[1] = target: T1, BNPI (VGLUT1) (Rattus norvegicus, UniProt Q62634); test: 3H-glutamate uptake by membranes from PC12 cells expressing BNPI; type: biochemical; settings: for inhibition of 3H-glutamate uptake by membranes expressing BNPI: uptake at 5 min; for effect on 3H-glutamate uptake by BNPI membranes: membranes preloaded with 4 mM KCl
T1 construct: expressed in transfected cells; light membranes prepared from them
T1 sequence (Q62634 1-560): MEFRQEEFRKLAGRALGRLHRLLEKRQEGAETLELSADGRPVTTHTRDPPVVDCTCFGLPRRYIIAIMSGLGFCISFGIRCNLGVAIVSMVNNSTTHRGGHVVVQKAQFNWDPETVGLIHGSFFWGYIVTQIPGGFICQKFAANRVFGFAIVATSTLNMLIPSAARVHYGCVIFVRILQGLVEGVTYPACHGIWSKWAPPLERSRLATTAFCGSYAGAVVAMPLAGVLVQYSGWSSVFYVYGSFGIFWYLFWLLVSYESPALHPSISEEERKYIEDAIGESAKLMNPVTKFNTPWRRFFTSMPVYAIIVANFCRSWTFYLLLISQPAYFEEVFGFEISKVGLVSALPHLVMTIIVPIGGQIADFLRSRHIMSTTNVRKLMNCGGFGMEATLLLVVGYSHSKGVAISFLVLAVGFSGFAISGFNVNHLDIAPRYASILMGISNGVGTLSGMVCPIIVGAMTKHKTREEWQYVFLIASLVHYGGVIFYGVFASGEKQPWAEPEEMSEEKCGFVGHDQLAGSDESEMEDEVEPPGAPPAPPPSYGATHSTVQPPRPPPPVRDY
Description: Rather, the type I transporter NaPi-1 transports organic anions, including phenol red and penicillin G, with substantially higher apparent affinity than Pi (Busch et al. (1996) Proc. Natl. Acad. Sci., USA, 93: 5347). Human genetic studies have shown that mutations in another protein closely related to BNPI and NaPi-1 account for disorders of sialic acid storage (Verheijen et al. (1999) Nature Genet. 23: 462). In these conditions, sialic acid accumulates in lysosomes because of a defect in proton-driven export (Renlund et al. (1986) Science 232: 759; Mancini et al. (1989) J. Biol. Chem. 264: 15247; Tietze et al. (1989) J. Biol. Chem. 264: 15316; Mancini et al. (1992) Proc. Natl. Acad. Sci., USA, 89: 6609). […] To determine whether BNPI mediates the transport of glutamate into synaptic vesicles, we transfected the rat BNPI cDNA into rat pheochromocytoma PC12 cells, which lack detectable endogenous BNPI protein. The rat BNPI cDNA was stably expressed in PC12 cells, and immunofluorescence for BNPI was used to identify the most highly expressing cell clones. Membranes were prepared by homogenizing the washed cells in SH buffer [0.32 M sucrose and 10 mM Hepes-KOH (pH 7.4)] containing protease inhibitors and by pelleting the nuclei at 1000 g for 5 min and the heavier membranes at 27,000 g for 35 min. The supernatant containing lighter membranes was then pelleted at 210,000 g for 1 hour and resuspended in SH buffer with protease inhibitors at a final concentration of ˜10 μg protein/μl.
We then prepared a population of light membranes, including synaptic-like microvesicles, from the transfected and untransfected cells (McIntire et al. (1997) Nature 389: 870) and tested their ability to accumulate 3H-glutamate in the presence of 4 mM chloride and ATP, conditions that optimize glutamate accumulation by native synaptic vesicles (Maycox et al. (1988) J. Biol. Chem., 263: 15423; Carlson et al. […] J. Biol. Chem. 264: 7369). To initiate the transport reaction, we added 10 μl of membranes to 190 μl of SH buffer containing 4 mM KCl, 4 mM MgSO4, 4 mM ATP, and 50 μM 3H-glutamate, with other additions noted in the text and figure legends. The reaction mixture was incubated at 29° C. for varying times, and the uptake was terminated by rapid filtration, followed by immediate washes with 6 ml of cold 0.155 M potassium tartrate and 10 mM Hepes (pH 7.4). Background uptake was determined using membranes prepared from untransfected cells that were incubated for the same amount of time at the same temperature. Transport measurements were performed in duplicate with at least two different preparations of membranes. The Km was calculated by averaging the results of two separate determinations.

[2] = target: T2, DNPI/VGLUT2 (Rattus norvegicus, UniProt Q9JI12); test: 3H-L-glutamate uptake by membranes from PC12 cells expressing DNPI/VGLUT2; type: biochemical; settings: for inhibition of DNPI-mediated 3H-L-glutamate uptake: uptake at 5 minutes; for effect on 3H-glutamate uptake by DNPI membranes: preloaded 4 mM KCl, 5 minutes
T2 construct: To reconstruct the full open reading frame, the missing segment was amplified from rat brain cDNA by PCR; expressed in transfected cells; light membranes prepared from them
T2 sequence (Q9JI12 1-582): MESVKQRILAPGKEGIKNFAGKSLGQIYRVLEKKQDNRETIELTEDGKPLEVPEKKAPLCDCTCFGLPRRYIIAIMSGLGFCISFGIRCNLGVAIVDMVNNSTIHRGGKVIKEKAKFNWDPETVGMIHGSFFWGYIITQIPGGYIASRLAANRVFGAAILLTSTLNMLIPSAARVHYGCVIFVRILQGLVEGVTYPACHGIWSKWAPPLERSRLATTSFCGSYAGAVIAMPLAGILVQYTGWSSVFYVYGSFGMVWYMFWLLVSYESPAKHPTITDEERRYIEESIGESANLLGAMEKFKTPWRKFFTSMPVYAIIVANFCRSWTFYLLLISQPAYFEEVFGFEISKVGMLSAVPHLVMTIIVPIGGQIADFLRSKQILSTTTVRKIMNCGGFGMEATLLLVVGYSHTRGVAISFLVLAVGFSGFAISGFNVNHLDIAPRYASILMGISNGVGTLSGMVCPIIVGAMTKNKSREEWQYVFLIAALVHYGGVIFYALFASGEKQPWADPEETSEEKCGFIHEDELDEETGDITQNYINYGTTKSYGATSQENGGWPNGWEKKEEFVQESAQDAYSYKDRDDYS
Description: PC12 cells were grown in Dulbecco's modified Eagle's medium containing 10% equine serum, 5% calf serum and transfected by electroporation with the rat DNPI/VGLUT2 cDNA subcloned in the pcDNA3 vector containing an […] (Krantz et al. (2000) J. Cell Biol. 149). Stable transformants were selected for resistance to the neomycin analog G418 (500 μg/ml) and screened by immunofluorescence with the DNPI antibody, resulting in the identification of two independent clones with more than 80% of the cells expressing DNPI.
For membrane preparation, untransfected and DNPI-expressing PC12 cells were grown on 15 cm plates, washed with calcium- and magnesium-free PBS, collected in 0.32 M sucrose/10 mM HEPES-KOH, pH 7.4 (SH buffer) containing protease inhibitors (2 μg/ml leupeptin, 1 μg/ml pepstatin, 1 μg/ml E64, 0.2 mM diisopropylfluorphosphate, 2 μg/ml aprotinin, and 1.25 mM MgEGTA), homogenized using a ball bearing device and the homogenate sedimented at 1000 g for 5 min to remove nuclei and debris. The supernatant was then sedimented at 27,000 g for 35 min to remove heavier membranes. The remaining light membranes including small synaptic-like microvesicles were then sedimented at 210,000 g for 1 hour. The pellet was resuspended in SH buffer with protease inhibitors at ˜10 mg protein/ml.
To initiate the transport reaction, 20 μl membranes (˜200 μg protein) were added to 180 μl SH buffer containing 4 mM KCl, 4 mM MgSO4, […], and 100 μM ^3H-L-glutamate, with other additions noted in the text and figure legends. The reaction mixture was incubated at 29° C. for varying intervals, uptake was terminated by rapid filtration through Supor-200 membranes (Gelman) and the filters were washed rapidly four times with 1.5 ml cold 0.155 M potassium tartrate/10 mm HEPES-KOH, pH 7.4 before measuring the bound radioactivity by scintillation counting in 3 ml Cytoscint (ICN). Uptake specifically mediated by DNPI/VGLUT2 was determined by subtracting the background uptake of untransfected cell membranes from the uptake by transfected cell membranes. To examine the chloride dependence of transport, varying proportions of 0.14 M K gluconate and 0.14 M KCl were mixed in the standard reaction buffer (without sucrose) to vary the chloride concentration and maintain constant osmolarity. The ionophores nigericin and valinomycin used in FIG. 13E were prepared as 200× stock solutions in ethanol. The final ethanol concentration in the reaction mixture was 1%.

[3] = test system: synaptic vesicles; settings: cited from earlier work
[4] = test system: untransfected PC12 cell membranes; test: background 3H-glutamate uptake by membranes from untransfected PC12 cells; type: biochemical, rat; settings: uptake at 5 min
Description: To initiate the transport reaction, we added 10 μl of membranes to 190 μl of SH buffer containing 4 mM KCl, 4 mM MgSO4, 4 mM ATP, and 50 μM 3H-glutamate, with other additions noted in the text and figure legends. […] Background uptake was determined using membranes prepared from untransfected cells that were incubated for the same amount of time at the same temperature. Transport measurements were performed in duplicate with at least two different preparations of membranes. The Km was calculated by averaging the results of two separate determinations.

SMILES: N[C@H](CCC(=O)O)C(=O)O [D-Glutamate]
- inhibition of 3H-glutamate uptake by membranes expressing BNPI ([1]; 10 mM): partially inhibits
- inhibition of DNPI-mediated 3H-L-glutamate uptake ([2]; 10 mM): significantly inhibit
- inhibition of DNPI-mediated 3H-L-glutamate uptake ([2]; 10 mM, listed as D-glutamate): inhibit uptake

SMILES: N[C@H](CC(=O)O)C(=O)O [D-aspartate]
- inhibition of DNPI-mediated 3H-L-glutamate uptake ([2]; 10 mM): not

- inhibition of 3H-glutamate uptake by membranes expressing BNPI ([1]; 1 μM DIDS): blocks transport only partly
- inhibition at 1 µM ([1]; 1 μM DIDS, read-out: inhibition of 3H-glutamate transport mediated by BNPI): ~60%
SMILES: O=S(=O)(O)c1cc(N=C=S)ccc1C=Cc1ccc(N=C=S)cc1S(=O)(=O)O [DIDS, 4,4′-diisothiocyanatostilbene-2,2′-disulfonic acid]
- IC50 ([3]; read-out: median inhibitory concentration, glutamate transport by synaptic vesicles): ~700 nM

SMILES: Cc1cc(-c2ccc(/N=N/c3ccc4c(S(=O)(=O)O)cc(S(=O)(=O)O)c(N)c4c3O)c(C)c2)ccc1/N=N/c1ccc2c(S(=O)(=O)O)cc(S(=O)(=O)O)c(N)c2c1O [Evans blue]
- inhibition of 3H-glutamate uptake by membranes expressing BNPI ([1]; Evans blue 5 μM (low micromolar)): inhibited the transport; also recorded: inhibits BNPI activity dramatically
- effect on background glutamate uptake by untransfected cell membranes [4]: had little effect
- inhibition of glutamate transport into synaptic vesicles ([3]; low micromolar concentrations): inhibited the transport
- inhibition of DNPI-mediated 3H-L-glutamate uptake ([2]; Evans Blue 4.5 μM): inhibit uptake; also recorded: significantly inhibit

- inhibition of DNPI-mediated 3H-L-glutamate uptake ([2]; 10 mM): not
SMILES: NCCCC(=O)O [GABA, γ-aminobutyric acid]

- inhibition of 3H-glutamate uptake by membranes expressing BNPI ([1]; 10 mM): had no effect and not
SMILES: NC(=O)CC[C@H](N)C(=O)O [L-glutamine]

- inhibition of 3H-L-glutamate uptake by DNPI ([2]; Pi, data not shown): does not
SMILES: O=P(O)(O)O [Pi, inorganic phosphate]
- inhibition of 3H-glutamate uptake by membranes expressing BNPI ([1]; 10 mM): did not inhibit; also recorded: has little effect

- inhibition of DNPI-mediated 3H-L-glutamate uptake ([2]; 10 mM): not
SMILES: NCC(=O)O [glycine]

SMILES: CO[C@@H]1C[C@@H](C[C@H]2CC[C@H](C)[C@H]([C@@H](C)C(=O)O)O2)O[C@]2(O[C@](C)([C@H]3CC[C@@](C)([C@@H]4O[C@@H]([C@H]5O[C@@](O)(CO)[C@H](C)C[C@@H]5C)C[C@@H]4C)O3)C[C@H]2C)[C@@H]1C [nigericin]
- effect on 3H-glutamate uptake by BNPI membranes ([1]; nigericin 5 μM): increases the uptake
- effect on 3H-glutamate uptake by DNPI membranes ([2]; 5 μM nigericin): did not significantly reduce transport

SMILES: CC(C)[C@@H]1NC(=O)[C@H](C)OC(=O)[C@@H](C(C)C)NC(=O)[C@@H](C(C)C)OC(=O)[C@H](C(C)C)NC(=O)[C@H](C)OC(=O)[C@@H](C(C)C)NC(=O)[C@@H](C(C)C)OC(=O)[C@H](C(C)C)NC(=O)[C@H](C)OC(=O)[C@@H](C(C)C)NC(=O)[C@@H](C(C)C)OC1=O [valinomycin]
- effect on 3H-glutamate uptake by BNPI membranes ([1]; valinomycin 20 μM): substantially reduces glutamate uptake
- effect on 3H-glutamate uptake by DNPI membranes ([2]; 20 μM valinomycin): inhibits
